Source: ChEMBL document CHEMBL1201862, “PubChem BioAssay data set” (2004)
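Following 48 hours of exposure in 96-well plates, responses at five concentrations were used to interpolate endpoints linearly. The concentration for 50% growth inhibition is given as GI50.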 Active and inactive are the calls of the source. Cut-off read from the data, not from the text of the source: active = GI50 up to about 1.1 µM and inactive = higher.

Key:
Assay in all cases: NCI tumour cell line growth inhibition, 48 h
786-0 = system: 786-0
HCT-15 = system: HCT-15
K562 = system: K562
LOX IMVI = system: LOX IMVI
MDA-MB-231 = system: MDA-MB-231
MOLT-4 = system: MOLT-4
Malme-3M = system: Malme-3M
NCI-H226 = system: NCI-H226
NCI/ADR-RES = system: NCI/ADR-RES
OVCAR-3 = system: OVCAR-3
OVCAR-4 = system: OVCAR-4
OVCAR-5 = system: OVCAR-5
OVCAR-8 = system: OVCAR-8
RPMI-8226 = system: RPMI-8226
RXF 393 = system: RXF 393
SF-295 = system: SF-295
SK-MEL-28 = system: SK-MEL-28
T47D = system: T47D
U-251 = system: U-251
UACC-257 = system: UACC-257

Measured: GI50

CCSc1nc(=S)n(-c2ccccc2)c(C)c1C(C)=O
inactive: 786-0 > 100 µM | K562 > 100 µM | LOX IMVI > 100 µM | MDA-MB-231 > 100 µM | MOLT-4 > 100 µM | Malme-3M > 100 µM | NCI-H226 > 100 µM | NCI/ADR-RES > 100 µM | OVCAR-3 > 100 µM | OVCAR-4 > 100 µM | OVCAR-5 > 100 µM | OVCAR-8 > 100 µM | RPMI-8226 > 100 µM | RXF 393 > 100 µM | SF-295 > 100 µM | SK-MEL-28 > 100 µM | T47D > 100 µM | U-251 > 100 µM | UACC-257 > 100 µM
> 100 µM: HCT-15

Nc1nc(-c2cc(-c3cccc4ccccc34)nc(N)n2)cc(-c2cccc3ccccc23)n1
inactive: 786-0 > 100 µM | K562 > 100 µM | LOX IMVI > 100 µM | MDA-MB-231 > 100 µM | MOLT-4 > 100 µM | Malme-3M > 100 µM | NCI-H226 > 100 µM | NCI/ADR-RES > 100 µM | OVCAR-3 > 100 µM | OVCAR-4 > 100 µM | OVCAR-5 > 100 µM | OVCAR-8 > 100 µM | RPMI-8226 > 100 µM | RXF 393 > 100 µM | SF-295 65.8 µM | SK-MEL-28 > 100 µM | T47D > 100 µM | U-251 > 100 µM | UACC-257 > 100 µM
> 100 µM: HCT-15

COC(=O)[C@H](Cc1ccccc1)NP(=O)(O)OCC1OC(n2cc(C)c(=O)[nH]c2=O)CC1N=[N+]=[N-] (stereo not given in full)
inactive: 786-0 > 100 µM | K562 > 100 µM | LOX IMVI > 100 µM | MDA-MB-231 > 100 µM | MOLT-4 > 100 µM | Malme-3M > 100 µM | NCI-H226 > 100 µM | NCI/ADR-RES > 100 µM | OVCAR-3 > 100 µM | OVCAR-4 > 100 µM | OVCAR-5 > 100 µM | OVCAR-8 > 100 µM | RPMI-8226 > 100 µM | RXF 393 > 100 µM | SF-295 > 100 µM | SK-MEL-28 > 100 µM | T47D > 100 µM | U-251 > 100 µM | UACC-257 > 100 µM
> 100 µM: HCT-15

O=C(N/N=C/c1ccccc1)c1cccc2nc3ccccc3nc12
inactive: 786-0 > 100 µM | K562 > 100 µM | LOX IMVI 29.9 µM | MDA-MB-231 > 100 µM | MOLT-4 > 100 µM | Malme-3M > 100 µM | NCI-H226 38.7 µM | NCI/ADR-RES > 100 µM | OVCAR-3 > 100 µM | OVCAR-4 > 100 µM | OVCAR-5 > 100 µM | OVCAR-8 > 85.7 µM | RPMI-8226 > 100 µM | RXF 393 > 100 µM | SF-295 17.1 µM | SK-MEL-28 > 100 µM | T47D > 100 µM | U-251 > 100 µM | UACC-257 > 100 µM
9.66 µM: HCT-15

O=C(O)CN1CCN2CCOCCN(CC1)CCN(CC(=O)O)CC2
inactive: 786-0 > 100 µM | K562 > 100 µM | LOX IMVI > 100 µM | MDA-MB-231 > 100 µM | MOLT-4 > 100 µM | Malme-3M > 100 µM | NCI-H226 > 100 µM | NCI/ADR-RES > 100 µM | OVCAR-3 > 100 µM | OVCAR-4 > 100 µM | OVCAR-5 > 100 µM | OVCAR-8 > 100 µM | RPMI-8226 > 100 µM | RXF 393 > 100 µM | SF-295 > 100 µM | SK-MEL-28 > 100 µM | T47D > 100 µM | U-251 > 100 µM | UACC-257 > 100 µM
> 100 µM: HCT-15

CCOC(=O)C1=C(C)OC2(O)C=CC(O)=C3C(=O)N(c4ccccc4)C(=O)C312 (stereo not given)
30.6 µM: HCT-15
inactive: 786-0 40.5 µM | K562 32.7 µM | LOX IMVI 21.8 µM | MDA-MB-231 37.8 µM | MOLT-4 29.7 µM | Malme-3M 20 µM | NCI-H226 34.2 µM | NCI/ADR-RES 42.2 µM | OVCAR-3 61.9 µM | OVCAR-4 31.5 µM | OVCAR-5 58.5 µM | OVCAR-8 52 µM | RPMI-8226 14.9 µM | RXF 393 26.4 µM | SF-295 > 100 µM | SK-MEL-28 22.5 µM | T47D 45.1 µM | U-251 35.7 µM | UACC-257 39.1 µM

CC1(Br)Cc2ccccc2C1=O (stereo not given)
7.78 µM: HCT-15
inactive: 786-0 2.15 µM | K562 3.33 µM | LOX IMVI 3.09 µM | MDA-MB-231 6.92 µM | MOLT-4 2.13 µM | Malme-3M 3.36 µM | NCI-H226 2.34 µM | NCI/ADR-RES 13.1 µM | OVCAR-3 8.99 µM | OVCAR-4 6.89 µM | OVCAR-5 3.43 µM | OVCAR-8 8.57 µM | RPMI-8226 5.65 µM | RXF 393 > 10 µM | SF-295 18.7 µM | SK-MEL-28 2.29 µM | T47D 9.31 µM | U-251 4.59 µM | UACC-257 9.53 µM

CC1(C)CC[C@]2(C(=O)O)CC[C@]3(C)C(=CC[C@@H]4[C@@]5(C)CC[C@H](OC6OC(C(=O)O)C(O)C(O)C6O)C(C)(C)[C@@H]5CC[C@]43C)[C@@H]2C1 (stereo not given in full)
inactive: 786-0 17.5 µM | K562 17 µM | LOX IMVI 19 µM | MDA-MB-231 18.2 µM | MOLT-4 19.8 µM | Malme-3M 18.1 µM | NCI-H226 18.5 µM | NCI/ADR-RES 17.7 µM | OVCAR-3 14.2 µM | OVCAR-4 16.8 µM | OVCAR-5 16.2 µM | OVCAR-8 20.8 µM | RPMI-8226 19.8 µM | RXF 393 16.7 µM | SF-295 15.2 µM | SK-MEL-28 19.6 µM | T47D 18.4 µM | U-251 14.9 µM | UACC-257 16.4 µM
16.9 µM: HCT-15

CC(NC(=O)C(N)CC(=O)O)NC(=O)N1CCCC1 (stereo not given)
inactive: 786-0 > 100 µM | K562 > 100 µM | LOX IMVI > 100 µM | MDA-MB-231 > 100 µM | MOLT-4 > 100 µM | Malme-3M > 100 µM | NCI-H226 > 100 µM | NCI/ADR-RES > 100 µM | OVCAR-3 > 100 µM | OVCAR-4 > 100 µM | OVCAR-5 > 100 µM | OVCAR-8 > 100 µM | RPMI-8226 > 100 µM | RXF 393 > 100 µM | SF-295 > 100 µM | SK-MEL-28 > 100 µM | T47D > 100 µM | U-251 > 100 µM | UACC-257 > 100 µM
> 100 µM: HCT-15

CC1(C)C2CCC1C(=O)[C@@]1(C=CC(=O)CC1)C2 (stereo not given in full)
inactive: 786-0 > 100 µM | K562 > 100 µM | LOX IMVI > 100 µM | MDA-MB-231 > 100 µM | MOLT-4 > 100 µM | Malme-3M > 100 µM | NCI-H226 > 100 µM | NCI/ADR-RES > 100 µM | OVCAR-3 > 100 µM | OVCAR-4 > 100 µM | OVCAR-5 > 100 µM | OVCAR-8 > 100 µM | RPMI-8226 > 100 µM | RXF 393 > 100 µM | SF-295 > 100 µM | SK-MEL-28 43.1 µM | T47D > 100 µM | U-251 > 100 µM | UACC-257 > 100 µM
> 100 µM: HCT-15

Cc1nn(C(=O)c2ccc(Cl)cc2)c2c1C(c1ccccc1O)SC(=N)N2 (stereo not given)
> 10 µM: HCT-15
inactive: 786-0 > 10 µM | K562 > 10 µM | LOX IMVI > 10 µM | MDA-MB-231 > 10 µM | MOLT-4 > 10 µM | Malme-3M > 10 µM | NCI-H226 > 10 µM | NCI/ADR-RES > 10 µM | OVCAR-3 > 10 µM | OVCAR-4 > 10 µM | OVCAR-5 > 10 µM | OVCAR-8 > 10 µM | RPMI-8226 > 10 µM | RXF 393 > 10 µM | SF-295 > 10 µM | SK-MEL-28 > 10 µM | T47D > 10 µM | U-251 > 10 µM | UACC-257 > 10 µM

Cc1nn(C(=O)c2ccncc2)c2c1C(c1cccc([N+](=O)[O-])c1)SC(=N)N2 (stereo not given)
> 10 µM: HCT-15
inactive: 786-0 > 10 µM | K562 > 10 µM | LOX IMVI > 10 µM | MDA-MB-231 > 10 µM | MOLT-4 > 10 µM | Malme-3M > 10 µM | NCI-H226 > 10 µM | NCI/ADR-RES > 10 µM | OVCAR-3 > 10 µM | OVCAR-4 > 10 µM | OVCAR-5 > 10 µM | OVCAR-8 > 10 µM | RPMI-8226 > 10 µM | RXF 393 > 10 µM | SF-295 > 10 µM | SK-MEL-28 > 10 µM | T47D > 10 µM | U-251 > 10 µM | UACC-257 > 10 µM

CCOC(=O)C1=NOC2(C=C(Br)C(=O)C(Br)=C2)C1
2.03 µM: HCT-15
active: 786-0 0.659 µM | MOLT-4 < 0.0346 µM | Malme-3M 0.625 µM | RPMI-8226 0.217 µM
inactive: K562 1.37 µM | LOX IMVI 2.47 µM | MDA-MB-231 6.78 µM | NCI-H226 25.8 µM | NCI/ADR-RES 2.97 µM | OVCAR-3 1.39 µM | OVCAR-4 1.8 µM | OVCAR-5 5.47 µM | OVCAR-8 2.04 µM | RXF 393 1.59 µM | SF-295 15.5 µM | SK-MEL-28 6.75 µM | T47D 1.21 µM | U-251 9.93 µM | UACC-257 1.34 µM

COc1cc2cc3c4cc(OC)c(OC)cc4cc[n+]3c(C)c2cc1OC.O=C([O-])CS(=O)(=O)O
inactive: 786-0 88.3 µM | K562 61.1 µM | LOX IMVI > 100 µM | MDA-MB-231 70.5 µM | MOLT-4 > 100 µM | Malme-3M > 100 µM | NCI-H226 10.8 µM | NCI/ADR-RES > 100 µM | OVCAR-3 78.9 µM | OVCAR-4 17.7 µM | OVCAR-5 > 100 µM | OVCAR-8 24.3 µM | RPMI-8226 68.4 µM | RXF 393 > 100 µM | SF-295 > 100 µM | SK-MEL-28 73.3 µM | T47D 26.8 µM | U-251 8.69 µM | UACC-257 39.7 µM
> 100 µM: HCT-15
